± gives the standard deviation of the averaged measurements.
Experiments:
[1] = compound: T1, Cc1ccc(-c2cc(C(F)(F)F)nn2-c2ccc(S(N)(=O)=O)cc2)cc1 [CELECOXIB]; test: surviving fraction relative to DMSO-only wells; higher = less growth inhibition; details: exposure time: 5 days
Summary of the method: (§1)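 Viability was determined by CellTiter-Glo luminescence, expressed as surviving fraction normalised to the median of DMSO-only wells. The cells were log-phase tumour cell lines seeded at 250–500 per well in 384-well plates and, after 24 hours, exposed continuously for five days to inhibitors at 0.5, 1, 5, 10, 50, 100, 500 and 1000 nM. Three screens per line were run, keeping only lines with replicate Pearson r >0.7 and median Z' >0.3.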

[2] = compound: T2, CC[C@@]1(O)C(=O)OCc2c1cc1n(c2=O)Cc2cc3ccccc3nc2-1 [CAMPTOTHECIN]; test: as above; details: exposure time: 5 days
Summary of the method: as §1

[3] = compound: CC(=O)NCC(=O)N1[C@@H]2CC[C@H]1c1ccc(Nc3ncc(C(F)(F)F)c(NC4CCC4)n3)cc12; test: as above; details: exposure time: 5 days
Summary of the method: as §1

[4] = compound: T3, O=C(O)C1(C(=O)O)CCC1.[NH2-].[NH2-].[Pt+2] [CARBOPLATIN]; test: as above; details: exposure time: 5 days
Summary of the method: as §1

[5] = compound: T4, C[C@]1(O)C[C@@H](c2nc(-c3ccc4ccc(-c5ccccc5)nc4c3)c3c(N)nccn32)C1 [OSI-906]; test: as above; details: exposure time: 5 days
Summary of the method: as §1

[6] = compound: T5, COCC[n+]1c2c(n(Cc3cnccn3)c1C)C(=O)c1ccccc1C2=O [YM155]; test: as above; details: exposure time: 5 days
Summary of the method: as §1

[7] = compound: T6, CC(=O)O[C@H]1C(=O)[C@@]2(C)[C@H]([C@H](OC(=O)c3ccccc3)[C@]3(O)C[C@H](OC(=O)[C@H](O)[C@@H](NC(=O)c4ccccc4)c4ccccc4)C(C)=C1C3(C)C)[C@]1(OC(C)=O)CO[C@@H]1C[C@@H]2O [PACLITAXEL]; test: as above; details: exposure time: 5 days
Summary of the method: as §1

[8] = compound: T7, COc1cc2ncnc(Nc3ccc(F)c(Cl)c3)c2cc1OCCCN1CCOCC1 [GEFITINIB]; test: as above; details: exposure time: 5 days
Summary of the method: as §1

[9] = compound: CC(=O)c1c(C)c2cnc(Nc3ccc(N4CCNCC4)cn3)nc2n(C2CCCC2)c1=O; test: as above; details: exposure time: 5 days
Summary of the method: as §1

[10] = compound: T1, CELECOXIB; test: area under dose-response curve of surviving fraction (unscaled, Aref=0) (surviving fraction x log10(nM)); higher = more resistant; details: exposure time: 5 days; dose range 0.5-1000 nM
Summary of the method: (§2)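 Tumour cell lines in 384-well plates were exposed for five days to eight inhibitor concentrations from 0.5 to 1000 nM. Viability was read by CellTiter-Glo luminescence, normalised to DMSO-only wells, in three screens per line. Dose-response survival curves were fitted to surviving fractions by 3-parameter logistic regression in the drc R package. Area under the curve is the unscaled activity area (Aref = 0) over log10 dose.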

[11] = compound: T2, CAMPTOTHECIN; test: as above; details: exposure time: 5 days; dose range 0.5-1000 nM
Summary of the method: as §2

[12] = compound: CC(=O)NCC(=O)N1[C@@H]2CC[C@H]1c1ccc(Nc3ncc(C(F)(F)F)c(NC4CCC4)n3)cc12; test: as above; details: exposure time: 5 days; dose range 0.5-1000 nM
Summary of the method: as §2

[13] = compound: T3, CARBOPLATIN; test: as above; details: exposure time: 5 days; dose range 0.5-1000 nM
Summary of the method: as §2

[14] = compound: T4, OSI-906; test: as above; details: exposure time: 5 days; dose range 0.5-1000 nM
Summary of the method: as §2

[15] = compound: T5, YM155; test: as above; details: exposure time: 5 days; dose range 0.5-1000 nM
Summary of the method: as §2

[16] = compound: T6, PACLITAXEL; test: as above; details: exposure time: 5 days; dose range 0.5-1000 nM
Summary of the method: as §2

[17] = compound: T7, GEFITINIB; test: as above; details: exposure time: 5 days; dose range 0.5-1000 nM
Summary of the method: as §2

[18] = compound: CC(=O)c1c(C)c2cnc(Nc3ccc(N4CCNCC4)cn3)nc2n(C2CCCC2)c1=O; test: as above; details: exposure time: 5 days; dose range 0.5-1000 nM
Summary of the method: as §2

A549 LUNG
surviving fraction ([1]; 0.5 nM): 1.04 ± 0.039
surviving fraction ([1]; 1 nM): 1.05 ± 0.025
surviving fraction ([1]; 5 nM): 1.05 ± 0.045
surviving fraction ([1]; 10 nM): 1.05 ± 0.029
surviving fraction ([1]; 50 nM): 1.08 ± 0.044
surviving fraction ([1]; 100 nM): 1.08 ± 0.045
surviving fraction ([1]; 500 nM): 1.11 ± 0.057
surviving fraction ([1]; 1000 nM): 1.05 ± 0.044
surviving fraction ([2]; 0.5 nM): 0.909 ± 0.032
surviving fraction ([2]; 1 nM): 0.933 ± 0.021
surviving fraction ([2]; 5 nM): 0.964 ± 0.017
surviving fraction ([2]; 10 nM): 0.681 ± 0.018
surviving fraction ([2]; 50 nM): 0.2 ± 0.0097
surviving fraction ([2]; 100 nM): 0.121 ± 0.002
surviving fraction ([2]; 500 nM): 0.037 ± 0.003
surviving fraction ([2]; 1000 nM): 0.026 ± 0.001
surviving fraction ([3]; 0.5 nM): 0.952 ± 0.013
surviving fraction ([3]; 1 nM): 0.93 ± 0.018
surviving fraction ([3]; 5 nM): 0.906 ± 0.016
surviving fraction ([3]; 10 nM): 0.911 ± 0.014
surviving fraction ([3]; 50 nM): 0.686 ± 0.024
surviving fraction ([3]; 100 nM): 0.65 ± 0.031
surviving fraction ([3]; 500 nM): 0.585 ± 0.014
surviving fraction ([3]; 1000 nM): 0.445 ± 0.022
surviving fraction ([4]; 0.5 nM): 1.07 ± 0.023
surviving fraction ([4]; 1 nM): 1.08 ± 0.013
surviving fraction ([4]; 5 nM): 1.08 ± 0.02
surviving fraction ([4]; 10 nM): 1.03 ± 0.019
surviving fraction ([4]; 50 nM): 1.1 ± 0.011
surviving fraction ([4]; 100 nM): 1.06 ± 0.019
surviving fraction ([4]; 500 nM): 1.07 ± 0.032
surviving fraction ([4]; 1000 nM): 1.09 ± 0.012
surviving fraction ([5]; 0.5 nM): 0.932 ± 0.016
surviving fraction ([5]; 1 nM): 0.943 ± 0.028
surviving fraction ([5]; 5 nM): 0.948 ± 0.0087
surviving fraction ([5]; 10 nM): 0.931 ± 0.013
surviving fraction ([5]; 50 nM): 0.96 ± 0.029
surviving fraction ([5]; 100 nM): 0.97 ± 0.031
surviving fraction ([5]; 500 nM): 0.935 ± 0.027
surviving fraction ([5]; 1000 nM): 0.908 ± 0.025
surviving fraction ([6]; 0.5 nM): 0.977 ± 0.029
surviving fraction ([6]; 1 nM): 1.01 ± 0.034
surviving fraction ([6]; 5 nM): 0.971 ± 0.021
surviving fraction ([6]; 10 nM): 0.98 ± 0.021
surviving fraction ([6]; 50 nM): 0.191 ± 0.005
surviving fraction ([6]; 100 nM): 0.12 ± 0.0047
surviving fraction ([6]; 500 nM): 0.024
surviving fraction ([6]; 1000 nM): 0.028
surviving fraction ([7]; 0.5 nM): 0.982 ± 0.013
surviving fraction ([7]; 1 nM): 1.04 ± 0.031
surviving fraction ([7]; 5 nM): 0.369 ± 0.011
surviving fraction ([7]; 10 nM): 0.234 ± 0.0055
surviving fraction ([7]; 50 nM): 0.182 ± 0.011
surviving fraction ([7]; 100 nM): 0.186 ± 0.01
surviving fraction ([7]; 500 nM): 0.172 ± 0.0087
surviving fraction ([7]; 1000 nM): 0.179 ± 0.0038
surviving fraction ([8]; 0.5 nM): 1.05 ± 0.043
surviving fraction ([8]; 1 nM): 1.05 ± 0.024
surviving fraction ([8]; 5 nM): 1.07 ± 0.04
surviving fraction ([8]; 10 nM): 1.02 ± 0.013
surviving fraction ([8]; 50 nM): 1.05 ± 0.033
surviving fraction ([8]; 100 nM): 1.05 ± 0.051
surviving fraction ([8]; 500 nM): 1.05 ± 0.047
surviving fraction ([8]; 1000 nM): 1.03 ± 0.037
surviving fraction ([9]; 0.5 nM): 1.03 ± 0.035
surviving fraction ([9]; 1 nM): 1.02 ± 0.018
surviving fraction ([9]; 5 nM): 1.05 ± 0.0087
surviving fraction ([9]; 10 nM): 0.993 ± 0.039
surviving fraction ([9]; 50 nM): 1.07 ± 0.063
surviving fraction ([9]; 100 nM): 1.12 ± 0.042
surviving fraction ([9]; 500 nM): 1.154 ± 0.007
surviving fraction ([9]; 1000 nM): 1.116 ± 0.011
area under dose-response curve [10]: 3.51
area under dose-response curve [11]: 1.62
area under dose-response curve [12]: 2.54
area under dose-response curve [13]: 3.54
area under dose-response curve [14]: 3.1
area under dose-response curve [15]: 1.83
area under dose-response curve [16]: 1.32
area under dose-response curve [17]: 3.46
area under dose-response curve [18]: 3.48

Reference: the supplement of paper PMC6045584
